Test results taken from US10414759B2, “Phenylthiazoles and uses thereof” (Purdue Research Foundation, priority 2017, dated 2019).
Converted amounts (≈) assume the structure as drawn.

Legend:
[1] = test system: Enterococcus faecium ATCC 700221 (VRE); test: MIC/MBC Gram-positive pathogens (Table 9); type: cell-based; details: Table 9; Enterococcus faecium ATCC 700221 (VRE); read-out: MIC
Method: (§1) The minimum inhibitory concentration (MIC) of tested compounds and control antibiotics were determined using the broth microdilution method in accordance with the recommendations contained in the Clinical and Laboratory Standards Institute guidelines, against methicillin-sensitive (ATCC 6538 and NRS107), methicillin-resistant (MRSA), and vancomycin-resistant (VRSA) Staphylococcus aureus, Staphylococcus epidermidis, Enterococcus faecalis, E. faecium, Listeria monocytogenes, and Streptococcus pneumoniae clinical isolates. A bacterial solution equivalent to 0.5 McFarland standard was prepared and diluted in cation-adjusted Mueller-Hinton broth (CAMHB) to achieve a bacterial concentration of about 5×10^5 CFU/mL and seeded in 96-well plates. Enterococcus faecium was diluted in brain heart infusion broth. Enterococcus faecalis, Streptococcus pneumonia and Listeria monocytogenes were diluted in tryptone soya broth (TSB). Compounds and control drugs were added in the first row of 96-well plates and serially diluted (to achieve a concentration gradient ranging from 128 to 1 μg/mL). Plates were then incubated aerobically at 37° C. for at least 18 hours. The minimum bactericidal concentration (MBC) of the active compounds was tested by plating 5 μL from wells with no growth onto Tryptic soy agar (TSA) plates.

[2] = test system: MRSA (2658 RCMB); test: MIC against MRSA (2658 RCMB), broth dilution; type: cell-based, Staphylococcus aureus; details: Staphylococcus aureus; Table 7; initial screening, MRSA (2658 RCMB); read-out: minimum inhibitory concentration (MIC)
Method: Bacteria were cultured in cation-adjusted Mueller Hinton broth in a 96-well plate. Compounds, using triplicate samples, were added to the plate and serially diluted. […] Plates were visually inspected and the MIC was categorized as the concentration at which no visible growth of bacteria was observed. The average of triplicate MIC determinations is reported.
(§2) A bacterial solution equivalent to 0.5 McFarland standard was prepared and diluted in cation-adjusted Mueller-Hinton broth (CAMHB) to achieve a bacterial concentration of about 5×10^5 CFU/mL and seeded in 96-well plates. Enterococcus faecium was diluted in brain heart infusion broth. Enterococcus faecalis, Streptococcus pneumonia and Listeria monocytogenes were diluted in tryptone soya broth (TSB).

[3] = test system: human colorectal (Caco-2) cell; test: In vitro cytotoxicity against Caco-2 cells (MTS); type: cell-based; details: at 32 μg/mL
Method: Tested compounds were assayed (at concentrations of 16, 32, and 64 μg/mL) against a human colorectal (Caco-2) cell to determine the potential toxic effect to mammalian cells in vitro. Briefly, cells were cultured in Dulbecco's Modified Eagle Medium (DMEM) supplemented with 20% fetal bovine serum (FBS), non-essential amino acids (1×), and penicillin-streptomycin at 37° C. with CO2 (5%). Control cells received DMSO alone at a concentration equal to that in drug-treated cell samples. The cells were incubated with the compounds (in triplicate) in a 96-well plate at 37° C. with CO2 (5%) for two hours. The assay reagent MTS 3-(4,5-dimethylthiazol-2-yl)-5-(3-carboxymethoxyphenyl)-2-(4-sulfophenyl)-2H-tetrazolium) (Promega, Madison, Wis., USA) was subsequently added and the plate was incubated for four hours. Absorbance readings (at OD490) were taken using a kinetic microplate reader (Molecular Devices, Sunnyvale, Calif., USA). The quantity of viable cells after treatment with each compound was expressed as a percentage of the viability of DMSO-treated control cells (average of triplicate wells±standard deviation). The toxicity data was analyzed via a two-way ANOVA, with post hoc Sidak's multiple comparisons test (P<0.05), utilizing GraphPad Prism 6.0 (GraphPad Software, La Jolla, Calif.).

[4] = test system: MRSA NRS119; test: MIC/MBC S. aureus strains (Table 8); type: cell-based; details: Staphylococcus aureus
Method: as §2

[5] = test system: MRSA NRS384 (USA300); test: MIC/MBC S. aureus strains (Table 8); type: cell-based; details: Staphylococcus aureus
Method: as §2

[6] = test system: MRSA NRS385; test: MIC/MBC S. aureus strains (Table 8); type: cell-based; details: Staphylococcus aureus
Method: as §2

[7] = test system: S. aureus ATCC 6538; test: MIC/MBC S. aureus strains (Table 8); type: cell-based; details: Staphylococcus aureus, ATCC6538
Method: as §2

[8] = test system: MRSA NRS123 (USA400); test: MIC/MBC S. aureus strains (Table 8); type: cell-based; details: Staphylococcus aureus
Method: as §2

[9] = test system: MRSA NRS386; test: MIC/MBC S. aureus strains (Table 8); type: cell-based; details: Staphylococcus aureus
Method: as §2

[10] = test system: MRSA (USA300); test: Time-kill assay; type: cell-based, Staphylococcus aureus; details: 3.0×MIC
Method: Aliquots (100 μL) were taken from each sample after 2, 4, 6, 8, 10, 12, and 24 hours, serially diluted in phosphate-buffered saline, and transferred to Trypticase soy agar (TSA) (Becton, Dickinson and Company, Sparks, Md., USA) plates. Plates were incubated at 37° C. for at least 16 hours before counting viable CFU/mL to determine the time required to reduce the bacterial cell count by 3-log10.

[11] = test system: VRS12 (VRSA); test: MIC/MBC S. aureus strains (Table 8); type: cell-based; details: Staphylococcus aureus, Table 8, VRS12 (VRSA)
Method: as §1

[12] = test system: VRS10 (VRSA); test: MIC/MBC S. aureus strains (Table 8); type: cell-based; details: Staphylococcus aureus, Table 8, VRS10 (VRSA)
Method: as §1

[13] = test system: Enterococcus faecalis ATCC 51299 (VRE); test: MIC/MBC Gram-positive pathogens (Table 9); type: cell-based; details: Table 9; Enterococcus faecalis ATCC 51299 (VRE)
Method: as §2

[14] = test system: Methicillin-resistant Staphylococcus epidermidis NRS101; test: MIC/MBC Gram-positive pathogens (Table 9); type: cell-based
Method: as §2

[15] = test system: Listeria monocytogenes ATCC 19111; test: MIC/MBC Gram-positive pathogens (Table 9); type: cell-based; details: ATCC19111; Table 9; Listeria monocytogenes ATCC 19111
Method: as §2

[16] = test system: S. aureus NRS107; test: MIC/MBC S. aureus strains (Table 8); type: cell-based, Staphylococcus aureus; details: Staphylococcus aureus; Table 8; S. aureus NRS107
Method: as §2

## Cc1nc(-c2ccc(C(C)(C)C)cc2)sc1-c1ccnc(NC(=N)N(C)C)n1 [Compound 58, 3-(4-(2-(4-(tert-Butyl)phenyl)-4-methylthiazol-5-yl)pyrimidin-2-yl)-1,1-dimethylguanidine]
[1]
  MIC: 8 µg/mL (≈ 20.3 µM)
[2]
  MIC: 1.17 µg/mL (≈ 2.97 µM)
[3]
  tolerability to human colorectal cells, in words: intolerable
[4]
  MBC: 8 µg/mL (≈ 20.3 µM)
  MIC: 8 µg/mL (≈ 20.3 µM)
[5]
  MBC: 8 µg/mL (≈ 20.3 µM)
  MIC: 8 µg/mL (≈ 20.3 µM)
[6]
  MBC: 8 µg/mL (≈ 20.3 µM)
  MIC: 8 µg/mL (≈ 20.3 µM)
[7]
  MBC: 8 µg/mL (≈ 20.3 µM)
  MIC: 8 µg/mL (≈ 20.3 µM)
[8]
  MBC: 8 µg/mL (≈ 20.3 µM)
  MIC: 8 µg/mL (≈ 20.3 µM)
[9]
  MBC: 8 µg/mL (≈ 20.3 µM)
  MIC: 8 µg/mL (≈ 20.3 µM)
[10]; MRSA
  bactericidal / bacteriostatic behaviour in time-kill assay, in words: rapid bactericidal activity
[10]; t-butyl series
  time to completely eradicate the MRSA inoculum: within two to four hours
[11]; read-out: MBC
  MBC: 8 µg/mL (≈ 20.3 µM)
[11]; read-out: MIC
  MIC: 8 µg/mL (≈ 20.3 µM)
[12]; read-out: MBC
  MBC: 8 µg/mL (≈ 20.3 µM)
[12]; read-out: MIC
  MIC: 8 µg/mL (≈ 20.3 µM)
[13]
  MIC: 8 µg/mL (≈ 20.3 µM)
[14]
  MBC: 8 µg/mL (≈ 20.3 µM)
  MIC: 8 µg/mL (≈ 20.3 µM)
[15]
  MBC: 8 µg/mL (≈ 20.3 µM)
  MIC: 8 µg/mL (≈ 20.3 µM)
[16]
  MBC: 8 µg/mL (≈ 20.3 µM)
  MIC: 8 µg/mL (≈ 20.3 µM)
